Experiments:
Assay type in all cases: in vivo
[1] = system: giant foxtail (Setaria faberii); assay: Test B preemergence
In short: (§1)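 Greenhouse test: chemicals are formulated in a surfactant-containing non-phytotoxic solvent and applied either preemergence to planted seeds or postemergence to plants 2 to 18 cm tall. Response is rated visually versus controls after 13 to 15 days, 0 meaning no effect and 100 complete control.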

[2] = system: crabgrass (Digitaria sanguinalis); assay: Test B preemergence
In short: as §1

[3] = system: velvetleaf (Abutilon theophrasti); assay: Test B preemergence
In short: as §1

rice (Oryza saliva) [4] = assay: Test B preemergence
In short: as §1

[5] = system: pigweed (Amaranthus retroflexus); assay: Test B preemergence
In short: as §1

corn (Zea mays) [6] = assay: Test B preemergence
In short: as §1

[7] = system: barnyardgrass (Echinochloa crus-galli); assay: Test B preemergence
In short: as §1

[8] = system: Surinam grass (Brachiaria decumbens); assay: Test B preemergence
In short: as §1

[9] = system: cocklebur (Xanthium strumarium); assay: Test B preemergence
In short: as §1

[10] = system: lambsquarters (Chenopodium album); assay: Test B preemergence
In short: as §1

[11] = system: morning glory (Ipomoea hederacea); assay: Test B preemergence
In short: as §1

[12] = system: giant foxtail (Setaria faberii); assay: Test B postemergence
In short: as §1

[13] = system: crabgrass (Digitaria sanguinalis); assay: Test B postemergence
In short: as §1

[14] = system: velvetleaf (Abutilon theophrasti); assay: Test B postemergence
In short: as §1

[15] = system: pigweed (Amaranthus retroflexus); assay: Test B postemergence
In short: as §1

corn (Zea mays) [16] = assay: Test B postemergence
In short: as §1

wild oat (Avena fatua) = assay: Test B postemergence
In short: as §1

[17] = system: blackgrass (Alopecurus myosuroides); assay: Test B postemergence
In short: as §1

[18] = system: barnyardgrass (Echinochloa crus-galli); assay: Test B postemergence
In short: as §1

[19] = system: Surinam grass (Brachiaria decumbens); assay: Test B postemergence
In short: as §1

[20] = system: wheat (Triticum aestivum); assay: Test B postemergence
In short: as §1

[21] = system: cocklebur (Xanthium strumarium); assay: Test B postemergence
In short: as §1

[22] = system: lambsquarters (Chenopodium album); assay: Test B postemergence
In short: as §1

[23] = system: morning glory (Ipomoea hederacea); assay: Test B postemergence
In short: as §1

[24] = system: duck salad (Heteranthera limosa); assay: Test C flooded paddy test; conditions: for Ducksalad plant response rating: Flooded Paddy, scale 0 to 100, 0 no effect, 100 complete control; for Plant response rating, Ducksalad: flooded paddy test, scale 0 to 100 (0 no effect, 100 complete control)
In short: (§2)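 Plants were grown to the 2-leaf stage under flooded paddy conditions and treated. They were then kept in a greenhouse for 12 to 14 days and visually rated against untreated controls on a 0–100 scale, where 0 is no effect and 100 is complete control.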

rice (Oryza saliva) [25] = assay: Test C flooded paddy test; conditions: for Rice plant response rating: Flooded Paddy, scale 0 to 100, 0 no effect, 100 complete control; for Plant response rating, Rice: flooded paddy test, scale 0 to 100 (0 no effect, 100 complete control)
In short: as §2

[26] = system: smallflower flatsedge (Cyperus difformis); assay: Test C flooded paddy test; conditions: for Flatsedge plant response rating: Flooded Paddy, scale 0 to 100, 0 no effect, 100 complete control; for Plant response rating, Flatsedge: flooded paddy test, scale 0 to 100 (0 no effect, 100 complete control)
In short: as §2

[27] = system: barnyardgrass (Echinochloa crus-galli); assay: Test C flooded paddy test; conditions: for Barnyardgrass plant response rating: Flooded Paddy, scale 0 to 100, 0 no effect, 100 complete control; for Plant response rating, Barnyardgrass: flooded paddy test, scale 0 to 100 (0 no effect, 100 complete control)
In short: as §2

[28] = Preemergence, Rate 500 g/ha, scale 0 to 100, 0 no effect, 100 complete control
[29] = preemergence, Rate 125 g/ha, scale of 0 to 100 where 0 is no effect and 100 is complete control, 13 to 15 days
[30] = Rate 125 g/ha, scale 0 to 100, 0 no effect, 100 complete control
[31] = Rate 500 g/ha, scale 0 to 100, 0 is no effect, 100 is complete control, 13 to 15 days
[32] = Rate 125 g/ha, scale 0 (no effect) to 100 (complete control), 13 to 15 days

For CCCCC(CCCC)c1ccn(C2SCN(c3cccc(C(F)(F)F)c3)C2=O)n1 (stereo not drawn) [Compound 116], the “Plant response rating, Foxtail, Giant” value [1, 28] was 0, the “Plant response rating, Foxtail, Giant” value [1, 29] was 0 and the “Plant response rating, Crabgrass” value [2, 28] was 0. The “Plant response rating, Crabgrass” value [2, 29] was 0, the “Plant response rating, Velvetleaf” value [3, 28] was 0 and the “Plant response rating, Velvetleaf” value [3, 29] was 0. For the same molecule, the “Plant response rating, Rice” value (rice (Oryza saliva) [4]; [28]) was 0, the “Plant response rating, Rice” value (rice (Oryza saliva) [4]; [29]) was 0 and the “Plant response rating, Pigweed” value [5, 28] was 0. For the same molecule, the “Plant response rating, Pigweed” value [5, 29] was 0, the “Plant response rating, Corn” value (corn (Zea mays) [6]; [28]) was 0 and the “Plant response rating, Corn” value (corn (Zea mays) [6]; [29]) was 0. The “Plant response rating, Barnyardgrass” value [7, 28] was 0, the “Plant response rating, Barnyardgrass” value [7, 29] was 0 and the “Plant response rating, Surinam grass” value [8, 28] was 0. The “Plant response rating, Surinam grass” value [8, 29] was 0, the “Plant response rating, Cocklebur” value [9, 28] was 0 and the “Plant response rating, Cocklebur” value [9, 29] was 0. For the same molecule, the “Plant response rating, Lambsquarters” value [10, 28] was 0, the “Plant response rating, Lambsquarters” value [10, 29] was 0 and the “Plant response rating, Morningglory” value [11, 28] was 0. The “Plant response rating, Morningglory” value [11, 29] was 0, the “Plant response rating, Foxtail, Giant” value [12, 30] was 0 and the “Plant response rating, Foxtail, Giant” value [12, 31] was 0. For the same molecule, the “Plant response rating, Crabgrass” value [13, 30] was 20, the “Plant response rating, Crabgrass” value [13, 31] was 40 and the “Plant response rating, Velvetleaf” value [14, 30] was 20. For the same molecule, the “Plant response rating, Velvetleaf” value [14, 31] was 30, the “Plant response rating, Pigweed” value [15, 30] was 50 and the “Plant response rating, Pigweed” value [15, 31] was 70. The “Plant response rating, Corn” value (corn (Zea mays) [16]; [30]) was 20, the “Plant response rating, Corn” value (corn (Zea mays) [16]; [31]) was 20 and the “Plant response rating, Wild Oat” value (wild oat (Avena fatua); [30]) was 30. For the same molecule, the “Plant response rating, Wild Oat” value (wild oat (Avena fatua); [31]) was 50, the “Plant response rating, Blackgrass” value [17, 30] was 0 and the “Plant response rating, Blackgrass” value [17, 31] was 60. The “Plant response rating, Barnyardgrass” value [18, 30] was 0, the “Plant response rating, Barnyardgrass” value [18, 31] was 20 and the “Plant response rating, Surinam grass” value [19, 30] was 0. For the same molecule, the “Plant response rating, Surinam grass” value [19, 31] was 20, the “Plant response rating, Wheat” value [20, 30] was 20 and the “Plant response rating, Wheat” value [20, 31] was 20. For the same molecule, the “Plant response rating, Cocklebur” value [21, 30] was 30, the “Plant response rating, Cocklebur” value [21, 31] was 50 and the “Plant response rating, Lambsquarters” value [22, 30] was 70. The “Plant response rating, Lambsquarters” value [22, 31] was 90, the “Plant response rating, Morningglory” value [23, 30] was 30 and the “Plant response rating, Morningglory” value [23, 31] was 30. For the same molecule, the “Ducksalad plant response rating” value ([24]; Rate 250 g/ha) was 0, the “Ducksalad plant response rating” value ([24]; Rate 500 g/ha) was 0 and the “Plant response rating, Ducksalad” value ([24]; Rate 62 g/ha) was 0. For the same molecule, the “Plant response rating, Ducksalad” value ([24]; Rate 125 g/ha) was 0, the “Rice plant response rating” value (rice (Oryza saliva) [25]; Rate 250 g/ha) was 0 and the “Rice plant response rating” value (rice (Oryza saliva) [25]; Rate 500 g/ha) was 0. The “Plant response rating, Rice” value (rice (Oryza saliva) [25]; Rate 62 g/ha) was 0, the “Plant response rating, Rice” value (rice (Oryza saliva) [25]; Rate 125 g/ha) was 0 and the “Flatsedge plant response rating” value ([26]; Rate 250 g/ha) was 0. For the same molecule, the “Flatsedge plant response rating” value ([26]; Rate 500 g/ha) was 0, the “Plant response rating, Flatsedge” value ([26]; Rate 62 g/ha) was 0 and the “Plant response rating, Flatsedge” value ([26]; Rate 125 g/ha) was 0. The “Barnyardgrass plant response rating” value ([27]; Rate 250 g/ha) was 0, the “Barnyardgrass plant response rating” value ([27]; Rate 500 g/ha) was 0 and the “Plant response rating, Barnyardgrass” value ([27]; Rate 62 g/ha) was 0. For the same molecule, the “Plant response rating, Barnyardgrass” value ([27]; Rate 125 g/ha) was 0.

With CC(C)(C)c1ccn(C2OCN(c3cccc(OC(F)(F)F)c3)C2=O)n1 (stereo not drawn) [Compound 66] the “Plant response rating, Foxtail, Giant” value [1, 28] was 40, the “Plant response rating, Foxtail, Giant” value [1, 29] was 20 and the “Plant response rating, Crabgrass” value [2, 28] was 40. For the same molecule, the “Plant response rating, Crabgrass” value [2, 29] was 0, the “Plant response rating, Velvetleaf” value [3, 28] was 20 and the “Plant response rating, Velvetleaf” value [3, 29] was 0. The “Plant response rating, Rice” value (rice (Oryza saliva) [4]; [28]) was 20, the “Plant response rating, Rice” value (rice (Oryza saliva) [4]; [29]) was 0 and the “Plant response rating, Pigweed” value [5, 28] was 100. The “Plant response rating, Pigweed” value [5, 29] was 100, the “Plant response rating, Corn” value (corn (Zea mays) [6]; [28]) was 0 and the “Plant response rating, Corn” value (corn (Zea mays) [6]; [29]) was 0. For the same molecule, the “Plant response rating, Barnyardgrass” value [7, 28] was 100, the “Plant response rating, Barnyardgrass” value [7, 29] was 100 and the “Plant response rating, Surinam grass” value [8, 28] was 20. The “Plant response rating, Surinam grass” value [8, 29] was 20, the “Plant response rating, Cocklebur” value [9, 28] was 0 and the “Plant response rating, Lambsquarters” value [10, 28] was 100. The “Plant response rating, Lambsquarters” value [10, 29] was 100, the “Plant response rating, Morningglory” value [11, 28] was 20 and the “Plant response rating, Foxtail, Giant” value [12, 32] was 0. The “Plant response rating, Foxtail, Giant” value [12, 31] was 60, the “Plant response rating, Crabgrass” value [13, 32] was 30 and the “Plant response rating, Crabgrass” value [13, 31] was 100. For the same molecule, the “Plant response rating, Velvetleaf” value [14, 32] was 20, the “Plant response rating, Velvetleaf” value [14, 31] was 20 and the “Plant response rating, Pigweed” value [15, 32] was 0. For the same molecule, the “Plant response rating, Pigweed” value [15, 31] was 0, the “Plant response rating, Corn” value (corn (Zea mays) [16]; [32]) was 0 and the “Plant response rating, Corn” value (corn (Zea mays) [16]; [31]) was 0. For the same molecule, the “Plant response rating, Wild Oat” value (wild oat (Avena fatua); [32]) was 0, the “Plant response rating, Wild Oat” value (wild oat (Avena fatua); [31]) was 0 and the “Plant response rating, Blackgrass” value [17, 32] was 0. For the same molecule, the “Plant response rating, Blackgrass” value [17, 31] was 0, the “Plant response rating, Barnyardgrass” value [18, 32] was 100 and the “Plant response rating, Barnyardgrass” value [18, 31] was 100. For the same molecule, the “Plant response rating, Surinam grass” value [19, 32] was 0, the “Plant response rating, Surinam grass” value [19, 31] was 30 and the “Plant response rating, Wheat” value [20, 32] was 0. For the same molecule, the “Plant response rating, Wheat” value [20, 31] was 0, the “Plant response rating, Cocklebur” value [21, 32] was 0 and the “Plant response rating, Cocklebur” value [21, 31] was 20. The “Plant response rating, Lambsquarters” value [22, 32] was 90, the “Plant response rating, Lambsquarters” value [22, 31] was 90 and the “Plant response rating, Morningglory” value [23, 32] was 0. The “Plant response rating, Morningglory” value [23, 31] was 0, the “Ducksalad plant response rating” value ([24]; Rate 250 g/ha) was 100 and the “Ducksalad plant response rating” value ([24]; Rate 500 g/ha) was 100. For the same molecule, the “Plant response rating, Ducksalad” value ([24]; Rate 62 g/ha) was 30, the “Plant response rating, Ducksalad” value ([24]; Rate 125 g/ha) was 90 and the “Rice plant response rating” value (rice (Oryza saliva) [25]; Rate 250 g/ha) was 50. For the same molecule, the “Rice plant response rating” value (rice (Oryza saliva) [25]; Rate 500 g/ha) was 100, the “Plant response rating, Rice” value (rice (Oryza saliva) [25]; Rate 62 g/ha) was 0 and the “Plant response rating, Rice” value (rice (Oryza saliva) [25]; Rate 125 g/ha) was 0. The “Flatsedge plant response rating” value ([26]; Rate 250 g/ha) was 100, the “Flatsedge plant response rating” value ([26]; Rate 500 g/ha) was 100 and the “Plant response rating, Flatsedge” value ([26]; Rate 62 g/ha) was 100. The “Plant response rating, Flatsedge” value ([26]; Rate 125 g/ha) was 100, the “Barnyardgrass plant response rating” value ([27]; Rate 250 g/ha) was 100 and the “Barnyardgrass plant response rating” value ([27]; Rate 500 g/ha) was 100. For the same molecule, the “Plant response rating, Barnyardgrass” value ([27]; Rate 62 g/ha) was 70 and the “Plant response rating, Barnyardgrass” value ([27]; Rate 125 g/ha) was 100.

Source: patent US7138361B2, “Herbicidal heterocycles” (E. I. du Pont de Nemours and Company, priority 2000, dated 2006)
